Measurements from publication PMC2867956, “Interdomain Interactions Control Ca^2+-Dependent Potentiation in the Cation Channel TRPV4” (PLoS ONE, 2010).
pIC50: −log10 of the molar value. Entries after “also recorded” stand apart in the source; their conditions may differ. No end group written: not given here.

Columns and labels:
P2/C2 complex = assay: AlphaScreen competition, C2-Flag/P2-biotin complex; type: binding, human; details: read-out: IC50, competition of P2/C2 complex; C2-Flag and P2-biotin; untagged competitor; AlphaScreen pH 7.4, 90 min room temperature
Description: (§1) First, we did a complementation experiment to test whether a CaM molecule that binds to the C2 fragment of TRPV4 through its C-lobe can form an additional interaction with another CaM binding domain thus forming a ternary complex. […] We used an AlphaScreen-based proximity assay (Fig. 2, Methods S1) in which the acceptor beads were coated with the C-terminal fragment C2-Flag, and the donor beads either with the N-terminal CaM binding peptide P2-biotin, or, as a negative control, with C2-biotin. The interaction between the proteins was measured in the presence of increasing CaM concentrations in 100 µM Ca^2+ or 1 mM EGTA (Fig. 3A).
(§2) AlphaScreen acceptor and donor beads were coated with C2-Flag and either P2-biotin (Fig. 7D) or CaM-biotin at 100 µM Ca^2+ (Fig. 7E) and incubated with untagged C2 or N2 competitor proteins at the indicated concentrations. […] A similar finding was observed when the CaM/C2 interaction was subjected to competition by C2 or N2 (Fig. 7E).
Proteins were expressed in E. coli, affinity purified and biotinylated if applicable (for details see Methods S1). For protein interaction measurements, a proximity assay system based on the AlphaScreen technology (PerkinElmer) was used (see Methods S1). […] After incubation for 90 min at room temperature, the AlphaScreen output signal was recorded in a Fusion alpha FP instrument (PerkinElmer) at 2 s reading time per well. […]

CaM/C2 complex = assay: AlphaScreen competition, C2-Flag/CaM-biotin complex; type: binding, human; details: C2-Flag and CaM-biotin at 100 µM Ca^2+; untagged competitor; AlphaScreen pH 7.4, 90 min room temperature
Method: as §2
(§3) Proteins were expressed in E. coli, affinity purified and biotinylated if applicable (for details see Methods S1). For protein interaction measurements, a proximity assay system based on the AlphaScreen technology (PerkinElmer) was used (see Methods S1). Briefly, streptavidin-coated AlphaScreen donor and anti-Flag acceptor beads at a final concentration of 16.7 µg/ml were incubated in a 384-well plate format (OptiPlate-384, PerkinElmer) with C2-GST-biotin or P2-biotin and the respective Flag-tagged interaction protein at concentrations of 10 nM, if not otherwise indicated. Assay buffer conditions were 50 mM Tris, pH 7.4, 100 mM KCl, and 0.1% BSA. After incubation for 90 min at room temperature, the AlphaScreen output signal was recorded in a Fusion alpha FP instrument (PerkinElmer) at 2 s reading time per well. AlphaScreen signals are given as mean±SEM in counts per second (cps) units.
Proteins used for competition experiments were subjected to gel filtration into the assay buffer using a PD-10 column (Amersham).

N2 = assay: Gel filtration, N2 dimerization; type: physicochemical, human; details: non-denaturing, 50 mM sodium phosphate pH 7.0, 200 mM KCl
Method: Purified proteins or gel filtration standard (BioRad) were loaded onto a Bio-Sil 250 (BioRad) size exclusion chromatography column and eluted with a buffer containing 50 mM sodium phosphate, pH 7.0 and 200 mM KCl. The elution profile was recorded by continuous absorption measurement at 280 nm.

TRPV4 C2 fragment = assay: AlphaScreen interdomain interaction with C2; type: binding, human; details: 10 nM C2-biotin, N2-Flag 30 pM to 1.5 µM, N3 data not shown
Description: as §1
In an AlphaScreen interaction experiment, donor and acceptor beads were incubated with 10 nM C2-biotin and N2-Flag at concentrations ranging from 30 pM to 1.5 µM, respectively (Fig. 3C).
as §3
The expression plasmids containing the cDNA for CaM or TRPV4 fragments in the pGEX-2TK vector (Amersham) or a modified derivative that contains an in-frame Flag epitope 5’ to the multiple cloning site were transformed into the BL21(DE3) Escherichia coli host, and protein expression was induced by 200 mg/ml IPTG at an OD600 of 0.6. […] The GST-Flag fusion proteins were eluted with 50 mM Tris, pH 8.5, 100 mM KCl, and 10 mM glutathione. […] The purity of all proteins was confirmed by SDS-polyacrylamide gel electrophoresis and Coomassie staining, and the protein concentration determined by the method according to Bradford using an albumin concentration standard. […]
To establish an improved interaction assay, that allows the quantification of protein interactions on a medium to high throughput scale, a commercially available proximity assay system based on the AlphaScreen (Amplified Luminescent Proximity Homogenous Assay) technology (PerkinElmer) was modified. […]

wild type N2 fragment = assay: AlphaScreen N-terminal homologous interaction, wild type N2; type: binding, human; details: nominally Ca^2+-free buffers
Method: (§4) Proteins were expressed in E. coli, affinity purified and biotinylated if applicable (for details see Methods S1). For protein interaction measurements, a proximity assay system based on the AlphaScreen technology (PerkinElmer) was used (see Methods S1). […] Assay buffer conditions were 50 mM Tris, pH 7.4, 100 mM KCl, and 0.1% BSA. After incubation for 90 min at room temperature, the AlphaScreen output signal was recorded in a Fusion alpha FP instrument (PerkinElmer) at 2 s reading time per well. AlphaScreen signals are given as mean±SEM in counts per second (cps) units.

N2 mutant WIA = assay: AlphaScreen N-terminal homologous interaction, N2 mutant WIA; type: binding, human; details: nominally Ca^2+-free buffers
Method: as §4

Row | Substance | pIC50 (P2/C2 complex) | pIC50 (CaM/C2 complex) | oligomeric state (N2) | interaction with C2 (TRPV4 C2 fragment) | binding of P2 to wild type N2 (wild type N2 fragment) | binding of P2 to N2 mutant WIA (N2 mutant WIA)
1 | N2: N-terminal TRPV4 fragment, residues 79-138 (VPNPIDLLESTLYESSVVPGPKKAPMDSLFDYGTYRHHSSDNKRWRKKIIEKQPQSPKAP; also: Flag tag; UniProt Q9HBA0 79-138, looked up, fragment) | 6.78 | 6.28 | a single peak was detected at a size that corresponds to the dimeric form; also recorded: monophasic elution profile with an apparent molecular size that corresponds with a dimeric form of the protein | interdomain interaction could also be shown | – | –
2 | P2: N-terminal CaM binding peptide of TRPV4, residues 117-136 | – | – | – | – | bound strongly | bound strongly
